Experimental data published in ChEMBL document CHEMBL1201862, “PubChem BioAssay data set” (2004).
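Dose response: 5 concentrations. Exposure: 48 h. Format: 96-well plates. Endpoint: linear interpolation; highest concentration if not reached. Here, GI50 denotes the concentration required for 50% inhibition of growth.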 The source made the active and inactive calls. Cut-off read from the data, not from the text of the source: active = GI50 up to about 1.1 µM and inactive = higher.

Assays:
Experiment in all cases: NCI tumour cell line growth inhibition, 48 h
[1] = test system: A549
[2] = test system: COLO 205
[3] = test system: HCC 2998
[4] = test system: HL-60
[5] = test system: HT-29
[6] = test system: K562
[7] = test system: KM12
[8] = test system: MOLT-4
[9] = test system: RPMI-8226
[10] = test system: SF-268
[11] = test system: SF-295
[12] = test system: SF-539
[13] = test system: SK-MEL-28
[14] = test system: SK-OV-3
[15] = test system: UO-31
[16] = test system: 786-0
[17] = test system: ACHN
[18] = test system: M14
[19] = test system: TK-10

Row | Structure (SMILES) | GI50 [1] | GI50 [2] | GI50 [3] | GI50 [4] | GI50 [5] | GI50 [6] | GI50 [7] | GI50 [8] | GI50 [9] | GI50 [10] | GI50 [11] | GI50 [12] | GI50 [13] | GI50 [14] | GI50 [15] | GI50 [16] | GI50 [17] | GI50 [18] | GI50 [19]
1 | CNC(=O)C(C)C1CCC2(C)C=CC(=O)C(C)=C2C1O (stereo unspecified) | > 48.8 µM (inactive) | > 47.2 µM (inactive) | 67.3 µM (inactive) | > 100 µM (inactive) | > 100 µM (inactive) | > 100 µM (inactive) | > 100 µM (inactive) | > 100 µM (inactive) | > 100 µM (inactive) | > 100 µM (inactive) | > 44.8 µM (inactive) | > 100 µM (inactive) | > 100 µM (inactive) | > 100 µM (inactive) | > 43.3 µM (inactive) |  |  |  | 
2 | O=C(CC1=NCCN1)c1ccccc1 | > 213 µM (inactive) | > 750 µM (inactive) | > 750 µM (inactive) | 455 µM (inactive) | > 750 µM (inactive) | > 750 µM (inactive) | > 750 µM (inactive) | > 750 µM (inactive) | > 750 µM (inactive) | > 750 µM (inactive) | > 750 µM (inactive) | > 750 µM (inactive) | > 750 µM (inactive) | > 750 µM (inactive) | 721 µM (inactive) |  |  |  | 
3 | CN(C)CN1C(=O)/C(=N\n2c(S)nnc2-c2ccncc2)c2ccccc21 | 55 µM (inactive) | 38.3 µM (inactive) |  | 11.7 µM (inactive) | 22.2 µM (inactive) | 26.5 µM (inactive) | 43.7 µM (inactive) | 12.1 µM (inactive) |  | 57.5 µM (inactive) | > 100 µM (inactive) | 23.5 µM (inactive) | 57.1 µM (inactive) | 31.7 µM (inactive) | 29.5 µM (inactive) | 16.9 µM (inactive) | 48.1 µM (inactive) | 24.8 µM (inactive) | 41.9 µM (inactive)
4 | O=C(CC1(O)C(=O)Nc2c(Cl)cc(Cl)cc21)c1ccco1 (stereo unspecified) | > 100 µM (inactive) | > 100 µM (inactive) | 48.8 µM (inactive) | 20.8 µM (inactive) | 52.7 µM (inactive) | 30.3 µM (inactive) | 32.7 µM (inactive) | 15.4 µM (inactive) | 23.1 µM (inactive) | 50 µM (inactive) | 32 µM (inactive) |  | > 100 µM (inactive) | > 100 µM (inactive) | 98.2 µM (inactive) | 23.7 µM (inactive) | 83.6 µM (inactive) | 54 µM (inactive) | 88.1 µM (inactive)
5 | CC(=O)c1cc2sc3ccccc3c2[nH]1 | > 100 µM (inactive) | > 100 µM (inactive) | > 100 µM (inactive) |  | > 100 µM (inactive) | > 100 µM (inactive) | > 100 µM (inactive) | > 100 µM (inactive) | 16.3 µM (inactive) | > 100 µM (inactive) | > 100 µM (inactive) | > 100 µM (inactive) | > 100 µM (inactive) | > 100 µM (inactive) | 56.4 µM (inactive) | > 100 µM (inactive) | > 100 µM (inactive) | > 100 µM (inactive) | > 100 µM (inactive)
6 | COc1cc(/C=C/C(=O)O)ccc1C(=O)OCc1ccccc1 | > 100 µM (inactive) | > 100 µM (inactive) | > 100 µM (inactive) | > 100 µM (inactive) | > 100 µM (inactive) | > 100 µM (inactive) | > 100 µM (inactive) | > 100 µM (inactive) | > 100 µM (inactive) | > 100 µM (inactive) | > 100 µM (inactive) | > 100 µM (inactive) | > 100 µM (inactive) | > 100 µM (inactive) | > 100 µM (inactive) |  |  |  | 
7 | O=C(CCC(=O)OCC1OC(O)(CC2OC(CO)C(O)C(O)C2O)C(O)C1O)OCc1ccccc1 (stereo unspecified) | > 100 µM (inactive) | > 100 µM (inactive) | > 100 µM (inactive) | > 100 µM (inactive) | > 100 µM (inactive) | > 100 µM (inactive) | > 100 µM (inactive) |  |  | > 100 µM (inactive) | > 100 µM (inactive) | > 100 µM (inactive) | > 100 µM (inactive) | > 100 µM (inactive) | > 100 µM (inactive) | > 100 µM (inactive) | > 100 µM (inactive) | > 100 µM (inactive) | > 100 µM (inactive)
8 | CC(C)=CC(O)C(C(O)CCC1(C)OCCO1)S(=O)(=O)c1ccccc1 (stereo unspecified) | > 100 µM (inactive) | > 100 µM (inactive) | > 100 µM (inactive) |  |  |  | > 100 µM (inactive) |  | > 100 µM (inactive) | > 100 µM (inactive) | > 100 µM (inactive) | > 100 µM (inactive) | > 100 µM (inactive) | > 100 µM (inactive) | > 100 µM (inactive) | > 100 µM (inactive) | > 100 µM (inactive) | > 100 µM (inactive) | > 100 µM (inactive)
9 | CN(C)CCNC(=O)c1cccc2cc3cc(O)ccc3nc12 | 0.811 µM (active) | 0.897 µM (active) | 2.2 µM (inactive) | 0.355 µM (active) | 1.02 µM (active) | 1.43 µM (inactive) | 2.12 µM (inactive) | 0.147 µM (active) | 1.36 µM (inactive) | 1.48 µM (inactive) | 1 µM (active) | 1.11 µM (active) | 1.92 µM (inactive) | 1.46 µM (inactive) | 1.12 µM (active) |  |  |  | 
10 | COC(=O)[C@]1(C)CCCn2c(=O)n(-c3ccccc3)c(=O)n21 | > 100 µM (inactive) | > 100 µM (inactive) | > 100 µM (inactive) |  | > 100 µM (inactive) | > 100 µM (inactive) | > 100 µM (inactive) | > 100 µM (inactive) | > 100 µM (inactive) | > 100 µM (inactive) | > 100 µM (inactive) | > 100 µM (inactive) | > 100 µM (inactive) | > 100 µM (inactive) | > 100 µM (inactive) | > 100 µM (inactive) | > 100 µM (inactive) | > 100 µM (inactive) | > 100 µM (inactive)
11 | COC(=O)c1cc2c3c(cc(N(C)C)c2[nH]1)N(C(=O)c1cc2cc(OC)c(OC)c(OC)c2[nH]1)CC3CCl (stereo unspecified) | 0.00292 µM (active) | 0.00557 µM (active) | 0.00948 µM (active) |  | 0.25 µM (active) | 0.00317 µM (active) | 0.00267 µM (active) | < 0.0025 µM (active) | 0.00432 µM (active) | 0.00374 µM (active) | 0.00379 µM (active) | 0.00653 µM (active) | 0.00641 µM (active) | 0.00738 µM (active) | 0.00316 µM (active) | < 0.0025 µM (active) | < 0.0025 µM (active) | 0.00294 µM (active) | 0.00968 µM (active)
12 | COc1cc(C2C(C(=O)Nc3ccccc3C)=C(C)NC(C)=C2C(=O)Nc2ccccc2C)ccc1O | > 100 µM (inactive) | > 100 µM (inactive) | > 100 µM (inactive) | 60.4 µM (inactive) | > 100 µM (inactive) | > 100 µM (inactive) | > 100 µM (inactive) | 60.7 µM (inactive) | 84.7 µM (inactive) |  | > 100 µM (inactive) | > 100 µM (inactive) | > 100 µM (inactive) | > 100 µM (inactive) | > 100 µM (inactive) | > 100 µM (inactive) | > 100 µM (inactive) | > 100 µM (inactive) | > 100 µM (inactive)
13 | COc1ccc(/C(Cl)=C(\C=O)c2ccc(OC)c(OC)c2)cc1 |  | > 100 µM (inactive) |  | 8.85 µM (inactive) | 29.3 µM (inactive) | 21 µM (inactive) |  | 28.6 µM (inactive) | 16.5 µM (inactive) | 30.1 µM (inactive) | 25.4 µM (inactive) | 23.8 µM (inactive) | > 100 µM (inactive) | 62.4 µM (inactive) | 40.5 µM (inactive) |  | 35.3 µM (inactive) | > 100 µM (inactive) | 68.2 µM (inactive)
14 | CC1C(/C=C/c2ccoc2)ON2CCCC12 (stereo unspecified) |  | > 100 µM (inactive) | > 100 µM (inactive) | > 100 µM (inactive) | > 100 µM (inactive) |  |  |  |  | > 100 µM (inactive) | > 100 µM (inactive) | > 100 µM (inactive) | > 100 µM (inactive) |  | > 100 µM (inactive) | > 100 µM (inactive) | > 100 µM (inactive) | > 10 µM (inactive) | > 100 µM (inactive)
15 | Nc1cc(O)c2cc(/N=N/c3ccc(/N=N/c4ccc(/N=N/c5ccc6cc(S(=O)(=O)O)cc(S(=O)(=O)O)c6c5)c5ccccc45)c4cc(S(=O)(=O)O)ccc34)c(S(=O)(=O)O)cc2c1 | 96.8 µM (inactive) | > 100 µM (inactive) | > 100 µM (inactive) | 42.3 µM (inactive) | > 90.2 µM (inactive) | > 31.6 µM (inactive) | > 100 µM (inactive) | 64.7 µM (inactive) | > 100 µM (inactive) | > 100 µM (inactive) | > 53.2 µM (inactive) | > 100 µM (inactive) | > 100 µM (inactive) | > 100 µM (inactive) | 85.9 µM (inactive) |  |  |  | 
16 | COc1cc(C2c3cc4c(cc3[C@@H](Oc3ccc(F)cc3)C3COC(=O)[C@H]23)OCO4)cc(OC)c1O (stereo partly specified) | 0.405 µM (active) | 1.75 µM (inactive) | 2.28 µM (inactive) | 0.341 µM (active) | 0.284 µM (active) | 0.457 µM (active) | 4.03 µM (inactive) | 0.359 µM (active) | 0.461 µM (active) | 0.679 µM (active) | 0.807 µM (active) | 0.209 µM (active) | 3.15 µM (inactive) |  | > 67.5 µM (inactive) |  |  |  | 
17 | COc1cc2c(cc1OC)-c1c3c(cc4c1[C@@H](C2)N(C)CC4)OCO3 | 3.34 µM (inactive) | 4.23 µM (inactive) | 9.35 µM (inactive) | 7.26 µM (inactive) | 6.4 µM (inactive) | 5.36 µM (inactive) | 7.4 µM (inactive) | 3.85 µM (inactive) | 5.74 µM (inactive) | 7.69 µM (inactive) | 1.64 µM (inactive) | 5.94 µM (inactive) | 12.2 µM (inactive) | 12.1 µM (inactive) | 11.8 µM (inactive) |  |  |  | 
